pEC50: −log10 of the molar value. Read-outs that look alike come from different tables or passages of the source. Each block holds one compound with its values, some of them ahead of it. Starred links: 1 amine or outer side, 2 acyl side, 3 side chain; linkers in the order of their positions; H or OH if unused. Non-standard residues stand in square brackets, D forms with d. Residues, ends and D or L forms follow the SMILES beside them. Groups on a side chain read outwards from the residue. *: point of attachment. C20 diacid = O=C(O)CCCCCCCCCCCCCCCCCCC(=O)*; γGlu = O=C(O)[C@H](CCC(=O)[*:2])N[*:1]; NMeI = CC[C@H](C)[C@H](NC)C(=O)O; Nle = CCCC[C@H](N)C(=O)O; AEEA = NCCOCCOCC(=O)O; Aib = CC(C)(N)C(=O)O
Tests used:
hCRHR1 = biological target: T1, hCRHR1 (Homo sapiens, UniProt P34998); assay: HTRF cAMP assay, determination of hCRHR1 potency (peptide libraries 5 conc., purified peptides 11 conc.); format: cell-based
T1 sequence (P34998 24-415): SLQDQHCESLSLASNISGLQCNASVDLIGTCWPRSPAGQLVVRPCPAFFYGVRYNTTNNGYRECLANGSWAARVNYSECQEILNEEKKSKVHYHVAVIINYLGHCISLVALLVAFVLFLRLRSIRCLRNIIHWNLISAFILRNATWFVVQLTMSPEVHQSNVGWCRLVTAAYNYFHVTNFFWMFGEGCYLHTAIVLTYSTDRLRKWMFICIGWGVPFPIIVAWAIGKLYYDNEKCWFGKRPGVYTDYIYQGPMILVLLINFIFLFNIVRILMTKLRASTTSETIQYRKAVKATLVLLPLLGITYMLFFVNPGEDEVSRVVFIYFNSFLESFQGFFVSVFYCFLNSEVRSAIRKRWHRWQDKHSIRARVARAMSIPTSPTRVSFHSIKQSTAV
Outline: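 CHO-K1 cells stably expressing human CRHR1, thawed from frozen stocks just before use, were stimulated in suspension with agonist peptides. cAMP was measured by HTRF competitive immunoassay (cryptate anti-cAMP antibody vs d2-cAMP).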

hCRHR2 = biological target: T2, hCRHR2 (Homo sapiens, UniProt Q13324); assay: HTRF cAMP assay, determination of hCRHR2 potency (peptide libraries 5 conc., purified peptides 11 conc.); format: cell-based
T2 sequence (Q13324 1-411): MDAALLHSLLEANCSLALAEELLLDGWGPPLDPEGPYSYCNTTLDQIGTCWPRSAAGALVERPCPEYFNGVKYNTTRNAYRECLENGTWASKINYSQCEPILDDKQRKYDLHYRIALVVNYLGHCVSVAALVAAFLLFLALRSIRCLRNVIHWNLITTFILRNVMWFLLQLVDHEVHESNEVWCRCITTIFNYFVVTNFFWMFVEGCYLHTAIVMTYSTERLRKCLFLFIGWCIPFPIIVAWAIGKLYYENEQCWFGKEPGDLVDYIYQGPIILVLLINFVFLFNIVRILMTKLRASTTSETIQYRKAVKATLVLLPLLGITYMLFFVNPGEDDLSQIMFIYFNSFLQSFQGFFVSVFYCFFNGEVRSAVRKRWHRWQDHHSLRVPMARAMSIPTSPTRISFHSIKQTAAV
Outline: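 Potency was read as cAMP accumulation in a stable CHO-K1 line expressing human CRHR2, used in suspension right after thawing. Detection relied on energy transfer from antibody-bound cryptate to d2-cAMP.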

[1] = library peptides, matched molecular pairs L vs Nle in position X^38, read-out: Potency hCRHR1 pEC50 (converted)
[2] = library peptides, matched molecular pairs L vs Nle in position X^38, read-out: Potency hCRHR2 pEC50 (converted)

EC50 (hCRHR1; Table 3, matched molecular pairs X^38 L vs Nle, peptide library of Example 4, read-out: hCRHR1 pEC50 (converted)): 1580 nM
EC50 (hCRHR2; Table 3, matched molecular pairs X^38 L vs Nle, peptide library of Example 4, read-out: hCRHR2 pEC50 (converted)): 0.126 nM
Compound: CCCC[C@H](NC(=O)[C@@H](NC(=O)[C@H](CCC(=O)O)NC(=O)[C@H](C)NC(=O)[C@H](CC(N)=O)NC(=O)[C@@H](NC(=O)[C@H](CCCCNC(=O)COCCOCCNC(=O)COCCOCCNC(=O)CC[C@H](NC(=O)CC[C@H](NC(=O)CCCCCCCCCCCCCCCCCCC(=O)O)C(=O)O)C(=O)O)NC(=O)[C@H](C)NC(=O)[C@H](CCC(N)=O)NC(=O)[C@H](CCC(=O)O)NC(=O)[C@H](CCCNC(=N)N)NC(=O)[C@H](C)NC(=O)[C@H](CCC(N)=O)NC(=O)[C@H](CCCNC(=N)N)NC(=O)[C@H](C)NC(=O)[C@H](CCCNC(=N)N)NC(=O)[C@H](C)NC(=O)[C@H](CCC(N)=O)NC(=O)[C@H](CCC(=O)O)NC(=O)[C@H](CC(C)C)NC(=O)[C@H](CC(C)C)NC(=O)[C@@H](NC(=O)[C@H](CCC(N)=O)NC(=O)[C@H](CC(C)C)NC(=O)[C@H](CC(C)C)NC(=O)CNC(=O)[C@@H](NC(=O)[C@@H]1CCCN1C(=O)[C@@H](NC(=O)[C@H](CC(=O)O)NC(=O)[C@H](CC(C)C)NC(=O)[C@H](CO)NC(=O)[C@H](CC(C)C)NC(=O)[C@@H](NC(=O)[C@@H](N)[C@@H](C)CC)C(C)C)C(C)C)[C@@H](C)CC)[C@@H](C)CC)[C@@H](C)O)[C@@H](C)CC)C(=O)N[C@@H](C)C(=O)N[C@@H](CCC(=O)O)C(=O)N[C@H](C(N)=O)[C@@H](C)CC [SEQ ID NO: 30] (H-IVLSLDVPIGLLQILLEQARARQAREQAK([AEEA-AEEA-γGlu-γGlu-C20 diacid])TNAEI[Nle]AEI-NH2)

pEC50 (hCRHR1; Table 5, purified peptides, read-out: hCRHR1 EC50): < 5.30
EC50 (hCRHR1; [1]): 398000 nM
Selectivity ratio (hCRHR1/ hCRHR2) (hCRHR2; Table 5): >9091
pEC50 (hCRHR2; Table 5, purified peptides, read-out: hCRHR2 EC50): 9.26
EC50 (hCRHR2; [2]): 0.398 nM
Compound: CCCC[C@H](NC(=O)[C@@H](NC(=O)[C@H](CCC(=O)O)NC(=O)[C@H](C)NC(=O)[C@H](CC(N)=O)NC(=O)[C@@H](NC(=O)[C@H](CCCCNC(=O)COCCOCCNC(=O)COCCOCCNC(=O)CC[C@H](NC(=O)CC[C@H](NC(=O)CCCCCCCCCCCCCCCCCCC(=O)O)C(=O)O)C(=O)O)NC(=O)[C@H](C)NC(=O)[C@H](CCC(N)=O)NC(=O)[C@H](CCC(=O)O)NC(=O)[C@H](CCCNC(=N)N)NC(=O)[C@H](C)NC(=O)[C@H](C)NC(=O)[C@H](CCCNC(=N)N)NC(=O)[C@H](C)NC(=O)[C@H](CCCNC(=N)N)NC(=O)[C@H](C)NC(=O)[C@H](CCC(N)=O)NC(=O)[C@H](CO)NC(=O)[C@H](CC(C)C)NC(=O)[C@H](CC(C)C)NC(=O)[C@@H](NC(=O)[C@H](CCC(N)=O)NC(=O)[C@H](CC(C)C)NC(=O)[C@H](CC(C)C)NC(=O)CNC(=O)[C@@H](NC(=O)[C@@H]1CCCN1C(=O)[C@@H](NC(=O)[C@H](CC(=O)O)NC(=O)[C@H](CC(C)C)NC(=O)[C@H](CO)NC(=O)[C@H](CC(C)C)NC(=O)[C@@H](NC(=O)[C@@H](N)[C@@H](C)CC)C(C)C)C(C)C)[C@@H](C)CC)[C@@H](C)CC)[C@@H](C)O)[C@@H](C)CC)C(=O)N[C@@H](C)C(=O)N[C@@H](CCC(=O)O)C(=O)N[C@H](C(N)=O)[C@@H](C)CC [compound 89] (H-IVLSLDVPIGLLQILLSQARARAAREQAK([AEEA-AEEA-γGlu-γGlu-C20 diacid])TNAEI[Nle]AEI-NH2)

EC50 (hCRHR1; Table 4, library peptides having X^38 = Nle, read-out: hCRHR1 pEC50 (converted)): 1000 nM
EC50 (hCRHR2; Table 4, library peptides having X^38 = Nle, read-out: hCRHR2 pEC50 (converted)): 0.0398 nM
Compound: CCCC[C@H](NC(=O)[C@@H](NC(=O)[C@H](CCC(=O)O)NC(=O)C(C)(C)NC(=O)[C@H](CC(N)=O)NC(=O)[C@@H](NC(=O)[C@H](CCCCNC(=O)COCCOCCNC(=O)COCCOCCNC(=O)CC[C@H](NC(=O)CC[C@H](NC(=O)CCCCCCCCCCCCCCCCCCC(=O)O)C(=O)O)C(=O)O)NC(=O)[C@H](C)NC(=O)[C@H](CCC(N)=O)NC(=O)[C@H](CCC(=O)O)NC(=O)[C@H](CCCNC(=N)N)NC(=O)[C@H](C)NC(=O)[C@H](C)NC(=O)[C@H](CCCNC(=N)N)NC(=O)[C@H](C)NC(=O)[C@H](CCCNC(=N)N)NC(=O)[C@H](C)NC(=O)[C@H](CCC(N)=O)NC(=O)[C@H](Cc1c[nH]cn1)NC(=O)[C@H](CC(C)C)NC(=O)[C@H](CC(C)C)NC(=O)[C@@H](NC(=O)[C@H](CCC(N)=O)NC(=O)[C@H](CC(C)C)NC(=O)[C@H](CC(C)C)NC(=O)CNC(=O)[C@@H](NC(=O)[C@@H]1CCCN1C(=O)[C@@H](NC(=O)[C@H](CC(=O)O)NC(=O)[C@H](CC(C)C)NC(=O)[C@H](CO)NC(=O)[C@H](CC(C)C)NC(=O)[C@@H](NC(=O)[C@@H](NC)[C@@H](C)CC)C(C)C)C(C)C)[C@@H](C)CC)[C@@H](C)CC)[C@@H](C)O)[C@@H](C)CC)C(=O)N[C@@H](C)C(=O)N[C@@H](CCC(=O)O)C(=O)N[C@H](C(N)=O)C(C)C [compound 207] (H-[NMeI]VLSLDVPIGLLQILLHQARARAAREQAK([AEEA-AEEA-γGlu-γGlu-C20 diacid])TN[Aib]EI[Nle]AEV-NH2)

EC50 (hCRHR1; [1]): 501 nM
EC50 (hCRHR2; [2]): 0.251 nM
Compound: CCCC[C@H](NC(=O)[C@@H](NC(=O)[C@H](CCC(=O)O)NC(=O)[C@H](C)NC(=O)[C@H](CC(N)=O)NC(=O)[C@@H](NC(=O)[C@H](CCCCNC(=O)COCCOCCNC(=O)COCCOCCNC(=O)CC[C@H](NC(=O)CC[C@H](NC(=O)CCCCCCCCCCCCCCCCCCC(=O)O)C(=O)O)C(=O)O)NC(=O)[C@H](C)NC(=O)[C@H](CCC(N)=O)NC(=O)[C@H](CCC(=O)O)NC(=O)[C@H](CCCNC(=N)N)NC(=O)[C@H](C)NC(=O)[C@H](C)NC(=O)[C@H](CCC(N)=O)NC(=O)[C@H](C)NC(=O)[C@H](CCCNC(=N)N)NC(=O)[C@H](C)NC(=O)[C@H](CCC(N)=O)NC(=O)[C@H](CCC(=O)O)NC(=O)[C@H](CC(C)C)NC(=O)[C@H](CC(C)C)NC(=O)[C@@H](NC(=O)[C@H](CCC(N)=O)NC(=O)[C@H](CC(C)C)NC(=O)[C@H](CC(C)C)NC(=O)CNC(=O)[C@@H](NC(=O)[C@@H]1CCCN1C(=O)[C@@H](NC(=O)[C@H](CC(=O)O)NC(=O)[C@H](CC(C)C)NC(=O)[C@H](CO)NC(=O)[C@H](CC(C)C)NC(=O)[C@@H](NC(=O)[C@@H](N)[C@@H](C)CC)C(C)C)C(C)C)[C@@H](C)CC)[C@@H](C)CC)[C@@H](C)O)[C@@H](C)CC)C(=O)N[C@@H](C)C(=O)N[C@@H](CCC(=O)O)C(=O)N[C@H](C(N)=O)C(C)C [compound 63] (H-IVLSLDVPIGLLQILLEQARAQAAREQAK([AEEA-AEEA-γGlu-γGlu-C20 diacid])TNAEI[Nle]AEV-NH2)

EC50 (hCRHR1; [1]): 25100 nM
EC50 (hCRHR2; [2]): 0.316 nM
Compound: CC[C@H](C)[C@H](N)C(=O)N[C@H](C(=O)N[C@@H](CC(C)C)C(=O)N[C@@H](CO)C(=O)N[C@@H](CC(C)C)C(=O)N[C@@H](CC(=O)O)C(=O)N[C@H](C(=O)N1CCC[C@H]1C(=O)N[C@H](C(=O)NCC(=O)N[C@@H](CC(C)C)C(=O)N[C@@H](CC(C)C)C(=O)N[C@@H](CCC(N)=O)C(=O)N[C@H](C(=O)N[C@@H](CC(C)C)C(=O)N[C@@H](CC(C)C)C(=O)N[C@@H](CCC(=O)O)C(=O)N[C@@H](CCC(N)=O)C(=O)N[C@@H](C)C(=O)N[C@@H](CCCNC(=N)N)C(=O)N[C@@H](C)C(=O)N[C@@H](CCC(N)=O)C(=O)N[C@@H](C)C(=O)N[C@@H](C)C(=O)N[C@@H](CCCNC(=N)N)C(=O)N[C@@H](CCC(=O)O)C(=O)N[C@@H](CCC(N)=O)C(=O)N[C@@H](C)C(=O)N[C@@H](CCCCNC(=O)COCCOCCNC(=O)COCCOCCNC(=O)CC[C@H](NC(=O)CC[C@H](NC(=O)CCCCCCCCCCCCCCCCCCC(=O)O)C(=O)O)C(=O)O)C(=O)N[C@H](C(=O)N[C@@H](CC(N)=O)C(=O)N[C@@H](C)C(=O)N[C@@H](CCC(=O)O)C(=O)N[C@H](C(=O)N[C@@H](CC(C)C)C(=O)N[C@@H](C)C(=O)N[C@@H](CCC(=O)O)C(=O)N[C@H](C(N)=O)C(C)C)[C@@H](C)CC)[C@@H](C)O)[C@@H](C)CC)[C@@H](C)CC)C(C)C)C(C)C [compound 62] (H-IVLSLDVPIGLLQILLEQARAQAAREQAK([AEEA-AEEA-γGlu-γGlu-C20 diacid])TNAEILAEV-NH2)

Source: EP4810052A2, “HCRHR2 SELECTIVE POLYPEPTIDES” (Gubra A/S, priority 2023, dated 2026)
